Data from patent US8435978B2, “Substituted sulfonamide compounds” (Gruenenthal GmbH, priority 2006, dated 2013).

How the values were obtained:
B1R receptor of the rat = target: T1, B1R receptor of the rat (Rattus norvegicus, UniProt P97583); assay: Functional study on the bradykinin receptor 1 (B1R), FLIPR Ca2+ assay, rB1R cells; format: cell-based; conditions: agonist Des-Arg9-bradykinin 100 nM, % inhibition compared with the maximum achievable inhibition; for inhibition at 10 µM: CHO-K1, test substance 10 μM, read-out: B1R Antagonism, rat [10 μM] % Inhibition; for B1R Antagonism, rat [10 μM] % Inhibition: test substance 10 μM, rB1R CHO K1 cells
T1 construct: host or cells: CHO K1 cells (Chinese hamster ovary), stably transfected
T1 sequence (P97583 1-337): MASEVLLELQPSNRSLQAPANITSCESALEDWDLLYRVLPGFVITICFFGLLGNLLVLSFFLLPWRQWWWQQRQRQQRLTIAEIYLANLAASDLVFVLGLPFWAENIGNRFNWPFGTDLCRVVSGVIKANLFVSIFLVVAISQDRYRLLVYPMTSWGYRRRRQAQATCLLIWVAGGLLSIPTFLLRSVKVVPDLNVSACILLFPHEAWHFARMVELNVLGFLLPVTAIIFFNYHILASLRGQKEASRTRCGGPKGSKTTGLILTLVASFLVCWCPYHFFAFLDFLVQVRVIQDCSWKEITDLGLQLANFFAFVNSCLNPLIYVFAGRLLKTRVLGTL
In short: (§1)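 CHO K1 cells stably expressing human or rat B1R were loaded with Fluo-4 and read on a FLIPR (ex 488/em 540 nm, peak fluorescence). Test compounds at 10 μM were added first, then after 10 min agonist: Lys-Des-Arg9-bradykinin 0.5 nM for hB1R, Des-Arg9-bradykinin 100 nM for rB1R; % inhibition versus maximum inhibition.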

human B1R receptor = target: T2, human B1R receptor (Homo sapiens, UniProt P46663); assay: Functional study on the bradykinin receptor 1 (B1R), FLIPR Ca2+ assay, hB1R cells; format: cell-based; conditions: agonist Lys-Des-Arg9-bradykinin 0.5 nM, % inhibition compared with the maximum achievable inhibition; for inhibition at 10 µM: CHO-K1, test substance 10 μM, read-out: B1R Antagonism, human [10 μM] % Inhibition; for B1R Antagonism, human [10 μM] % Inhibition: test substance 10 μM, hB1R CHO K1 cells
T2 construct: host or cells: CHO K1 cells (Chinese hamster ovary), stably transfected
T2 sequence (P46663 1-353): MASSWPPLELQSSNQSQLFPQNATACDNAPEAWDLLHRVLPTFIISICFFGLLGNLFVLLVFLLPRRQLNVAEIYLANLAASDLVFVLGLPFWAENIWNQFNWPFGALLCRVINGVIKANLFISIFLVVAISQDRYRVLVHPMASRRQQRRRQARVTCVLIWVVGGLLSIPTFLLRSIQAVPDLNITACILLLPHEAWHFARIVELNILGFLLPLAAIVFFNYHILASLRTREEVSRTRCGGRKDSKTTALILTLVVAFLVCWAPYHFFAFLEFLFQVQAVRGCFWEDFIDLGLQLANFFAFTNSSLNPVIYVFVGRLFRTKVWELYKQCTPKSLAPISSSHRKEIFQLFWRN
In short: as §1

Structure (SMILES)	inhibition at 10 µM (B1R receptor of the rat) [%]	inhibition at 10 µM (human B1R receptor) [%]	B1R Antagonism, rat [10 μM] % Inhibition (B1R receptor of the rat) [%]	B1R Antagonism, human [10 μM] % Inhibition (human B1R receptor) [%]
COc1cc(C)c(S(=O)(=O)N2CCCCC2COCC(=O)N2CCC(c3cccnc3)C2)c(C)c1 (stereo not drawn) [Example 237, 2-((1-(4-methoxy-2,6-dimethylphenylsulfonyl)piperidin-2-yl)methoxy)-1-(3-(pyridin-3-yl)pyrrolidin-1-yl)ethanone]	99.5	99.7		
COc1cc(C)c(S(=O)(=O)N2CCCCC2COCC(=O)N2CCC(c3ccncc3)C2)c(C)c1 (stereo not drawn) [Example 238, 2-((1-(4-methoxy-2,6-dimethylphenylsulfonyl)piperidin-2-yl)methoxy)-1-(3-(pyridin-4-yl)pyrrolidin-1-yl)ethanone]	99.3	99.9		
COc1cc(C)c(S(=O)(=O)N2CCCCC2COCC(=O)N(C)CCc2ccncc2)c(C)c1 (stereo not drawn) [Example 239, 2-((1-(4-methoxy-2,6-dimethylphenylsulfonyl)piperidin-2-yl)methoxy)-N-methyl-N-(2-(pyridin-4-yl)ethyl)acetamide]	99.7	94.7		
Cc1cc(C)nc(CC2CCCN2C(=O)COCC2CCCCN2S(=O)(=O)c2cccc3ccccc23)c1 (stereo not drawn) [Example 240, 1-(2-((4,6-dimethylpyridin-2-yl)methyl)pyrrolidin-1-yl)-2-((1-(naphthen-1-ylsulfonyl)piperidin-2-yl)methoxy)ethanone]			97.3	78.48
COc1cc(C)c(S(=O)(=O)N2CCCCC2COCC(=O)N(C)C(CN2CCCC2)c2ccccc2)c(C)c1 (stereo not drawn) [Example 241, 2-((1-(4-methoxy-2,6-dimethylphenylsulfonyl)piperidin-2-yl)methoxy)-N-methyl-N-(1-phenyl-2-(pyrrolidin-1-yl)ethyl)acetamide]	99.3	104		
COc1cc(C)c(S(=O)(=O)N2CCCCC2COCC(=O)N2CCN(C)CC2)c(C)c1 (stereo not drawn) [Example 242, 2-((1-(4-methoxy-2,6-dimethylphenylsulfonyl)piperidin-2-yl)methoxy)-1-(4-methylpiperazin-1-yl)ethanone]	88	102		
COc1cc(C)c(S(=O)(=O)N2CCCCC2COCC(=O)NCCc2c[nH]c3ccccc23)c(C)c1 (stereo not drawn) [Example 243, N-(2-(1H-indol-3-yl)ethyl)-2-((1-(4-methoxy-2,6-dimethylphenylsulfonyl)piperidin-2-yl)methoxy)acetamide]	80.6	24.8		
COc1cc(C)c(S(=O)(=O)N2CCCCC2COCC(=O)Nc2cc(C)nc3ccccc23)c(C)c1 (stereo not drawn) [Example 244, 2-((1-(4-methoxy-2,6-dimethylphenylsulfonyl)piperidin-2-yl)methoxy)-N-(2-methylquinolin-4-yl)acetamide]	97.3	70.2		
CCOCCN1CCN(C(=O)COCC2Cc3ccccc3CN2S(=O)(=O)c2c(C)cc(C)cc2C)CC1 (stereo not drawn) [Example 245, 1-(4-(2-ethoxyethyl)piperazin-1-yl)-2-((2-(mesitylsulfonyl)-1,2,3,4-tetrahydroisoquinolin-3-yl)methoxy)ethanone]	80.5	69.9		
COCCN1CCN(C(=O)COCC2Cc3ccccc3CN2S(=O)(=O)c2c(C)cc(C)cc2C)CC1 (stereo not drawn) [Example 246, 2-((2-(mesitylsulfonyl)-1,2,3,4-tetrahydroisoquinolin-3-yl)methoxy)-1-(4-(2-methoxyethyl)piperazin-1-yl)ethanone]	72.1	56.4		
COc1cc(C)c(S(=O)(=O)N2CCCCC2COCC(=O)N2CCCC2c2ccccn2)c(C)c1 (stereo not drawn) [Example 247, 2-((1-(4-methoxy-2,6-dimethylphenylsulfonyl)piperidin-2-yl)methoxy)-1-(2-(pyridin-2-yl)pyrrolidin-1-yl)ethanone]	96.8	70.8		
COc1cc(C)c(S(=O)(=O)N2CCCCC2COCC(=O)NCCN2CCN(C)CC2)c(C)c1 (stereo not drawn) [Example 248, 2-((1-(4-methoxy-2,6-dimethylphenylsulfonyl)piperidin-2-yl)methoxy)-N-(2-(4-methylpiperazin-1-yl)ethyl)acetamide]	89.9	95.6		
COc1cc(C)c(S(=O)(=O)N2CCCCC2COCC(=O)NCC(c2ccc(C(F)(F)F)cc2)N2CCOCC2)c(C)c1 (stereo not drawn) [Example 249, 2-((1-(4-methoxy-2,6-dimethylphenylsulfonyl)piperidin-2-yl)methoxy)-N-(2-morpholin-2-(4-(trifluoromethyl)phenyl)ethyl)acetamide]			92.36	59.22
COc1cc(C)c(S(=O)(=O)N2CCCCC2COCC(=O)NCCCCCN(C)C)c(C)c1 (stereo not drawn) [Example 250, N-(5-(dimethylamino)pentyl)-2-((1-(4-methoxy-2,6-dimethylphenylsulfonyl)piperidin-2-yl)methoxy)acetamide]	90.5	96.8		
COc1cc(C)c(S(=O)(=O)N2CCCCC2COCC(=O)NCC(c2ccccc2Cl)N2CCOCC2)c(C)c1 (stereo not drawn) [Example 251, N-(2-(2-chlorophenyl)-2-morpholinoethyl)-2-((1-(4-methoxy-2,6-dimethylphenylsulfonyl)piperidin-2-yl)methoxy)acetamide]	98.5	45.8		
COc1ccc(C(CNC(=O)COCC2CCCCN2S(=O)(=O)c2c(C)cc(OC)cc2C)N2CCCC2)cc1 (stereo not drawn) [Example 252, 2-((1-(4-methoxy-2,6-dimethylphenylsulfonyl)piperidin-2-yl)methoxy)-N-(2-(4-methoxyphenyl)-2-(pyrrolidin-1-yl)ethyl)acetamide]	97.9	102		
COc1cc(OC)cc(N2CCN(C(=O)COCC3CCCCN3S(=O)(=O)c3c(Cl)cc(Cl)cc3Cl)CC2)c1 (stereo not drawn) [Example 253, 1-(4-(3,5-dimethoxyphenyl)piperazin-1-yl)-2-((1-(2,4,6-trichlorophenylsulfonyl)piperidin-2-yl)methoxy)ethanone]	101	59.3		
CC(C)N(CCN1CCN(C(=O)COCC2CCCCN2S(=O)(=O)c2c(Cl)cc(Cl)cc2Cl)CC1)C(C)C (stereo not drawn) [Example 254, 1-(4-(2-(diisopropylamino)ethyl)piperazin-1-yl)-2-((1-(2,4,6-trichlorophenylsulfonyl)piperidin-2-yl)methoxy)ethanone]	97.8	105		
O=C(COCC1CCCCN1S(=O)(=O)c1c(Cl)cc(Cl)cc1Cl)N(C1CC1)C1CCN(Cc2ccccc2)CC1 (stereo not drawn) [Example 255, N-(1-benzylpiperidin-4-yl)-N-cyclopropyl-2-((1-(2,4,6-trichlorophenylsulfonyl)piperidin-2-yl)methoxy)acetamide]	101	105		
O=C(COCC1CCCCN1S(=O)(=O)c1c(Cl)cc(Cl)cc1Cl)NCC(c1cccnc1)N1CCOCC1 (stereo not drawn) [Example 256, N-(2-morpholino-2-(pyridin-3-yl)ethyl)-2-((1-(2,4,6-trichlorophenylsulfonyl)piperidin-2-yl)methoxy)acetamide]	91	50.2		
CCn1nccc1NC(=O)COCC1CCCCN1S(=O)(=O)c1c(C)cc(OC)cc1C (stereo not drawn) [Example 257, N-(1-ethyl-1H-pyrazol-5-yl)-2-((1-(4-methoxy-2,6-dimethylphenylsulfonyl)piperidin-2-yl)methoxy)acetamide]	99.9	34.3		
COc1cc(C)c(S(=O)(=O)N2CCCCC2COCC(=O)Nc2cccc3cnccc23)c(C)c1 (stereo not drawn) [Example 258]			99.75	75.25
COc1cc(C)c(S(=O)(=O)N2CCCCC2COCC(=O)NCCN(C)C)c(C)c1 (stereo not drawn) [Example 259, N-(2-(dimethylamino)ethyl)-2-((1-(4-methoxy-2,6-dimethylphenylsulfonyl)piperidin-2-yl)methoxy)acetamide]	99.3	66.1		
COc1cc(C)c(S(=O)(=O)N2CCCCC2COCC(=O)NCCCN2C(C)CCCC2C)c(C)c1 (stereo not drawn) [Example 260, N-(3-(2,6-dimethylpiperidin-1-yl)propyl)-2-((1-(4-methoxy-2,6-dimethylphenylsulfonyl)piperidin-2-yl)methoxy)acetamide]	60.6	102		
